Experimental data reported in US20060079696A1, “Substituted compounds derived from N-(benzyl)phenylacetamide, preparation and uses” (GENFIT, priority 2004, published 2006).

Biological target: T1, ATP-dependent potassium channels (K+ATP) (Rattus norvegicus, UniProt Q09429)
T1 construct: the potassium channels derive from a rat's cerebral cortex; tissue CEREP; host or cells: rat cerebral cortex
Experiment: [3H]glibenclamide binding to ATP-dependent potassium channels of rat cerebral cortex
Conditions: 1 h; 300 nM; specific displacement of [3H]glibenclamide 0.1 nM; read-out: KATP binding (300 nM)
Protocol: The results shown reflect the specific affinity of the inventive compounds on the ATP-dependent (K^+ATP) potassium channels. The specific binding measured corresponds to the difference between the total binding and the non-specific binding determined in the presence of an excess of non-marked reference ligand (glibenclamide 1 μM). The inventive compounds were tested at doses between 3 and 300 nM: the higher the percentage measured, the stronger the affinity of the compound for the ATP-dependent potassium channels.
The binding test was carried out at CEREP (Celle L'Evescault, France (86)) according to a protocol inspired by Angel et al. (Angel and Bidet 1991): the potassium channels derive from a rat's cerebral cortex and the reference compound is [^3H]glibenclamide at 0.1 nM. The protocol consists of incubation at 22° C. for one hour.

T1 sequence (Q09429 whole entry): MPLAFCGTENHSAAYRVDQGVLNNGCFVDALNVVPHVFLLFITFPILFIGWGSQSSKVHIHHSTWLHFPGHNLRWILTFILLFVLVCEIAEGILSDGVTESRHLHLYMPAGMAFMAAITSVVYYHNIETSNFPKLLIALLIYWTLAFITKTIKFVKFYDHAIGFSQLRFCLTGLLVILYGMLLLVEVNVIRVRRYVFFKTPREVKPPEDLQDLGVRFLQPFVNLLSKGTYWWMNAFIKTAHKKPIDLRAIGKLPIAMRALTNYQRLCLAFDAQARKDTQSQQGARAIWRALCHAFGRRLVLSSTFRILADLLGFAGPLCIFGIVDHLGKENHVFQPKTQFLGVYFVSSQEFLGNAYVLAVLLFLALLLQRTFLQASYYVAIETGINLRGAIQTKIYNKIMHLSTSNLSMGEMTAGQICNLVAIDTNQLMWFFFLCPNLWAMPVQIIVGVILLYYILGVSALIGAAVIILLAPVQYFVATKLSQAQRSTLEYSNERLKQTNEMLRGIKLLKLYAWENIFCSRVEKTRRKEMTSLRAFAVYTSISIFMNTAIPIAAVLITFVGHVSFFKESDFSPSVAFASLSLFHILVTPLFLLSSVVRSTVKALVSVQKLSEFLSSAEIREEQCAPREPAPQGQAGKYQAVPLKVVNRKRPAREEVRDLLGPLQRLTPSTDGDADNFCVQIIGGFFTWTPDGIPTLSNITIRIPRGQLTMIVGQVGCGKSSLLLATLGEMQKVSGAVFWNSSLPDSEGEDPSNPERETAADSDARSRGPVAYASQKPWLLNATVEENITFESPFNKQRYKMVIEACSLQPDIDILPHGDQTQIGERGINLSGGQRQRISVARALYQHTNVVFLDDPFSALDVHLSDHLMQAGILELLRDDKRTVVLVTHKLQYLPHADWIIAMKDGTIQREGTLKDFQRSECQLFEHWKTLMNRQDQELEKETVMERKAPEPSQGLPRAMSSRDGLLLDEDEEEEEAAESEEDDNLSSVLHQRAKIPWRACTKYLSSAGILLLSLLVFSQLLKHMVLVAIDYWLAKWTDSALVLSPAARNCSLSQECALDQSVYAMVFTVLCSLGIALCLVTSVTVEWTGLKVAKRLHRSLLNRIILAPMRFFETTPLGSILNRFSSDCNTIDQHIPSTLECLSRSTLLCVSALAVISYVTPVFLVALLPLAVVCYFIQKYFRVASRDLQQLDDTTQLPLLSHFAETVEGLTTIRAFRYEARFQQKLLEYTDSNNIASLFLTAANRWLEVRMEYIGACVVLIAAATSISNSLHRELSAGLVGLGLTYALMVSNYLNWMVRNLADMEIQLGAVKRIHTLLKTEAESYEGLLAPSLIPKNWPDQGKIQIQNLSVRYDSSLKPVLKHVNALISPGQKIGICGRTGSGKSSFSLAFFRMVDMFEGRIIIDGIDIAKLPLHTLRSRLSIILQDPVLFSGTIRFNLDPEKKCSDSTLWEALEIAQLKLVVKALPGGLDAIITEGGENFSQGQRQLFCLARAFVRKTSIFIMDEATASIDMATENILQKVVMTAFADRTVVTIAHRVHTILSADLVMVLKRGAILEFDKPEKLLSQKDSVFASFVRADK
T1 sequence (P70673 whole entry partner): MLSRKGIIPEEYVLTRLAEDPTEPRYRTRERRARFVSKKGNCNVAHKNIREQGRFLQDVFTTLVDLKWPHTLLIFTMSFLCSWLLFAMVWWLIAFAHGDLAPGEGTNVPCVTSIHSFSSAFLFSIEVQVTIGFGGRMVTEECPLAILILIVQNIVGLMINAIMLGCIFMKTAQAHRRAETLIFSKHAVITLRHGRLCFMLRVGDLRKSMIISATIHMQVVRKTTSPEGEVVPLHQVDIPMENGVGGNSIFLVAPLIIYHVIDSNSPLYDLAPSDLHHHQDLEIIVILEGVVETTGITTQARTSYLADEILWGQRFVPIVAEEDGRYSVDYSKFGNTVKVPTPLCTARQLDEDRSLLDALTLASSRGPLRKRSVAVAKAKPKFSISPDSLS

SMILES | inhibition at 0.3 µM [%]
CC(C)CC(NC(=O)Cc1ccc(OC(C)(C)C(=O)O)cc1)c1cc(Br)ccc1N1CCCCC1 (stereo not drawn) [Compound 37, 2-[4-[1-(3-methyl-1-(2-(1-piperidinyl)-5-(bromo)phenyl)butyl)aminocarbonylmethyl]phenoxy]-2-methylpropanoic acid] | 76
CC(C)CC(NC(=O)Cc1ccc(OC(C)(C)C(=O)O)cc1)c1ccccc1N1CCCC1 (stereo not drawn) [Compound 16, 2-[4-[1-(3-methyl-1-(2-(1-pyrrolidinyl)phenyl)butyl)aminocarbonylmethyl]phenoxy]-2-methylpropanoic acid] | 76
CC(C)(Oc1ccc(CC(=O)NC(CCc2ccccc2)c2ccccc2N2CCCCC2)cc1)C(=O)O (stereo not drawn) [Compound 51, 2-[4-[1-(3-phenyl-1-(2-(1-piperidinyl)phenyl)propyl)aminocarbonylmethyl]phenoxy]-2-methylpropanoic acid] | 32
CC(C)CC(NC(=O)Cc1ccc(OC(C(=O)O)C(C)C)cc1)c1ccccc1N1CCCCC1 (stereo not drawn) [Compound 26, 2-[4-[1-(3-methyl-1-(2-(1-piperidinyl)phenyl)butyl)aminocarbonylmethyl]phenoxy]-3-methylbutanoic acid] | 92
CC(C)(Oc1ccc(CC(=O)NC(Cc2ccccc2)c2ccccc2N2CCCCC2)cc1)C(=O)NS(C)(=O)=O (stereo not drawn) [Compound 62, N-[methylsulfonyl]-2-[4-[1-(2-phenyl-1-(2-(1-piperidinyl)phenyl)ethyl)aminocarbonylmethyl]phenoxy]-2-methylpropanamide] | 46
CC(C)CC(NC(=O)Cc1ccc(OC(C)(C)C(=O)O)cc1)c1ccccc1N1CCCCCC1 (stereo not drawn) [Compound 18, 2-[4-[1-(3-methyl-1-(2-(1-hexamethyleneimino)phenyl)butyl)aminocarbonylmethyl]phenoxy]-2-methylpropanoic acid] | 69
CC(C)CC(NC(=O)Cc1cccc(OC(C)(C)C(=O)O)c1)c1ccccc1N1CCCCC1 (stereo not drawn) [Compound 29, 2-[3-[1-(3-methyl-1-(2-(1-piperidinyl)phenyl)butyl)aminocarbonylmethyl]phenoxy]-2-methylpropanoic acid] | 15
CC(C)CC(NC(=O)Cc1ccc(OCC(=O)O)cc1)c1ccccc1N1CCCCC1 (stereo not drawn) [Compound 23, 2-[4-[1-(3-methyl-1-(2-(1-piperidinyl)phenyl)butyl)aminocarbonylmethyl]phenoxy]acetic acid] | 97
CC(C)CC(NC(=O)Cc1ccc(OC(C)(C)C(=O)O)cc1)c1cc(Cl)ccc1N1CCCCC1 (stereo not drawn) [Compound 22, 2-[4-[1-(3-methyl-1-(2-(1-piperidinyl)-5-(chloro)phenyl)butyl)aminocarbonylmethyl]phenoxy]-2-methylpropanoic acid] | 88
CC(C)CC(NC(=O)Cc1ccc(OC(C)(C)C(=O)O)cc1)c1cccc(N2CCCCC2)c1 (stereo not drawn) [Compound 8, 2-[4-[1-(3-methyl-1-(3-(1-piperidinyl)phenyl)butyl)aminocarbonylmethyl]phenoxy]-2-methylpropanoic acid] | 48
CC(C)(Oc1ccc(CC(=O)NC(c2ccccc2)c2ccccc2N2CCCCC2)cc1)C(=O)O (stereo not drawn) [Compound 3, 2-[4-[1-(1-phenyl-1-(2-(1-piperidinyl)phenyl)methyl)aminocarbonylmethyl]phenoxy]-2-methylpropanoic acid] | 75
CCCCC(NC(=O)Cc1ccc(OC(C)(C)C(=O)O)cc1)c1ccccc1S(=O)(=O)c1ccccc1 (stereo not drawn) [Compound 41, 2-[4-[1-(1-(2-(phenylsulfonyl)phenyl)pentyl)aminocarbonylmethyl]phenoxy]-2-methylpropanoic acid] | 12
CCCCC(NC(=O)Cc1ccc(OC(C)(C)C(=O)O)cc1)c1ccccc1O (stereo not drawn) [Compound 44, 2-[4-[1-(1-(2-(hydroxy)phenyl)pentyl)aminocarbonylmethyl]phenoxy]-2-methylpropanoic acid] | 48
CCN(CC)c1ccccc1C(CC(C)C)NC(=O)Cc1ccc(OC(C)(C)C(=O)O)cc1 (stereo not drawn) [Compound 20, 2-[4-[1-(3-methyl-1-(2-(diethylamino)phenyl)butyl)aminocarbonylmethyl]phenoxy]-2-methylpropanoic acid] | 85
CC(C)CC(NC(=O)Cc1ccc(OC(C)C(=O)O)cc1)c1ccccc1N1CCCCC1 (stereo not drawn) [Compound 24, 2-[4-[1-(3-methyl-1-(2-(1-piperidinyl)phenyl)butyl)aminocarbonylmethyl]phenoxy]propanoic acid] | 93
CC(C)CC(NC(=O)Cc1ccc(OC(C)(C)C(=O)O)c(Cl)c1)c1ccccc1N1CCCCC1 (stereo not drawn) [Compound 56, 2-[2-chloro-4-[1-(3-methyl-1-(2-(1-piperidinyl)phenyl)butyl)aminocarbonylmethyl]phenoxy]-2-methylpropanoic acid] | 49
CC(C)CC(NC(=O)Cc1ccc(OC(C(=O)O)c2ccccc2)cc1)c1ccccc1N1CCCCC1 (stereo not drawn) [Compound 27, 2-[4-[1-(3-methyl-1-(2-(1-piperidinyl)phenyl)butyl)aminocarbonylmethyl]phenoxy]-2-phenylacetic acid] | 95
CCCCC(c1ccccc1N1CCCCC1)N(CC(C)C)C(=O)Cc1ccc(OC(C)(C)C(=O)O)cc1 (stereo not drawn) [Compound 35, 2-[4-[N-isobutyl-N-(1-(2-(1-piperidinyl)phenyl)pentyl)aminocarbonylmethyl]phenoxy]-2-methylpropanoic acid] | 22
CC(C)(Oc1ccc(CC(=O)NC(c2ccccc2N2CCCCC2)C2CCCCC2)cc1)C(=O)O (stereo not drawn) [Compound 6, 2-[4-[1-(1-cyclohexyl-1-(2-(1-piperidinyl)phenyl)methyl)aminocarbonylmethyl]phenoxy]-2-methylpropanoic acid] | 47
CCC(Oc1ccc(CC(=O)NC(CC(C)C)c2ccccc2N2CCCCC2)cc1)C(=O)O (stereo not drawn) [Compound 25, 2-[4-[1-(3-methyl-1-(2-(1-piperidinyl)phenyl)butyl)aminocarbonylmethyl]phenoxy]butanoic acid] | 91
CC(C)CC(NC(=O)Cc1ccc(OC(C)(C)C(=O)NS(C)(=O)=O)cc1)c1ccccc1N1CCCCC1 (stereo not drawn) [Compound 58, N-[methylsulfonyl]-2-[4-[1-(3-methyl-1-(2-(1-piperidinyl)phenyl)butyl)aminocarbonylmethyl]phenoxy]-2-methylpropanamide] | 94
